Activity calls are given as the source filed them. How the calls were made is not given here.

The values that follow come from PubChem BioAssay AID1259407 (Chemical Carcinogenesis Research Information System (CCRIS), 2018).

The data set has as its system CCRIS mutagenicity, Ames/micronucleus/aberration tests. Briefly: CCRIS mutagenicity studies.
Setting [1] is: Test System: AMES SALMONELLA TYPHIMURIUM, Strain/Indicator: TA98, Metabolic Activation: NONE, Method: PREINCUBATION
Where [2] appears, read: Test System: AMES SALMONELLA TYPHIMURIUM, Strain/Indicator: TA100, Metabolic Activation: NONE, Method: PREINCUBATION
Setting [3] is: Test System: AMES SALMONELLA TYPHIMURIUM, Strain/Indicator: TA1535, Metabolic Activation: NONE, Method: PREINCUBATION
Setting [4] is: Test System: AMES SALMONELLA TYPHIMURIUM, Strain/Indicator: TA1537, Metabolic Activation: NONE, Method: PREINCUBATION

In the case of `CC(C)Nc1ccccc1`, the mutagenic call runs as follows: (Test System: AMES SALMONELLA TYPHIMURIUM, Strain/Indicator: TA98, Metabolic Activation: HAMSTER, LIVER, S-9, AROCLOR 1254 (5 OR 30%), Method: PREINCUBATION) “inactive; negative”; under setting [1], “inactive; negative”; (Test System: AMES SALMONELLA TYPHIMURIUM, Strain/Indicator: TA98, Metabolic Activation: RAT, LIVER, S-9, AROCLOR 1254 (10%), Method: PREINCUBATION) “inactive; negative”; (Test System: AMES SALMONELLA TYPHIMURIUM, Strain/Indicator: TA100, Metabolic Activation: HAMSTER, LIVER, S-9, AROCLOR 1254 (10%), Method: PREINCUBATION) “inactive; negative”; under setting [2], “inactive; negative”; (Test System: AMES SALMONELLA TYPHIMURIUM, Strain/Indicator: TA100, Metabolic Activation: RAT, LIVER, S-9, AROCLOR 1254 (10%), Method: PREINCUBATION) “inactive; negative”. The mutagenic call runs as follows: (Test System: AMES SALMONELLA TYPHIMURIUM, Strain/Indicator: TA1535, Metabolic Activation: HAMSTER, LIVER, S-9, AROCLOR 1254 (10%), Method: PREINCUBATION) “inactive; negative”; under setting [3], “inactive; negative”; (Test System: AMES SALMONELLA TYPHIMURIUM, Strain/Indicator: TA1535, Metabolic Activation: RAT, LIVER, S-9, AROCLOR 1254 (10%), Method: PREINCUBATION) “inactive; negative”; (Test System: AMES SALMONELLA TYPHIMURIUM, Strain/Indicator: TA1537, Metabolic Activation: HAMSTER, LIVER, S-9, AROCLOR 1254 (10%), Method: PREINCUBATION) “inactive; negative”; under setting [4], “inactive; negative”; (Test System: AMES SALMONELLA TYPHIMURIUM, Strain/Indicator: TA1537, Metabolic Activation: RAT, LIVER, S-9, AROCLOR 1254 (10%), Method: PREINCUBATION) “inactive; negative”.
For `O=[N+]([O-])c1ccc(/C=C/c2cccc(CO)n2)o1`, for the setting “Test System: UDS HUMAN FIBROBLASTS, Strain/Indicator: THY INCORP (NON-S-PHASE), Metabolic Activation: NONE, Method: AUTORADIOGRAPHY”, the mutagenic call is “active; positive”.
`CC(C)(C)OCC1CO1` (stereo not given): the mutagenic call is, setting by setting: (Test System: AMES SALMONELLA TYPHIMURIUM, Strain/Indicator: TA100, Metabolic Activation: HAMSTER, LIVER, S-9, AROCLOR 1254 (30%), Method: PREINCUBATION) “active; positive”; under setting [2], “active; positive”; (Test System: AMES SALMONELLA TYPHIMURIUM, Strain/Indicator: TA100, Metabolic Activation: RAT, LIVER, S-9, AROCLOR 1254 (30%), Method: PREINCUBATION) “active; positive”; (Test System: AMES SALMONELLA TYPHIMURIUM, Strain/Indicator: TA1535, Metabolic Activation: HAMSTER, LIVER, S-9, AROCLOR 1254 (30%), Method: PREINCUBATION) “active; positive”; under setting [3], “active; positive”; (Test System: AMES SALMONELLA TYPHIMURIUM, Strain/Indicator: TA1535, Metabolic Activation: RAT, LIVER, S-9, AROCLOR 1254 (30%), Method: PREINCUBATION) “active; positive”.
Take `CC(=O)N(C(C)=O)c1cc(N=Nc2ccc(C)cc2)ccc1C`: the mutagenic call was “inactive; negative” (Test System: AMES SALMONELLA TYPHIMURIUM, Strain/Indicator: TA98, Metabolic Activation: NONE, Method: SUSPENSION/PLATE); “inactive; negative” (Test System: AMES SALMONELLA TYPHIMURIUM, Strain/Indicator: TA98, Metabolic Activation: RAT, LIVER, S-9, PHENOBARBITAL AND 5,6-BENZOFLAVONE, Method: SUSPENSION/PLATE); “inactive; negative” (Test System: AMES SALMONELLA TYPHIMURIUM, Strain/Indicator: TA100, Metabolic Activation: NONE, Method: SUSPENSION/PLATE); “inactive; negative” (Test System: AMES SALMONELLA TYPHIMURIUM, Strain/Indicator: TA100, Metabolic Activation: RAT, LIVER, S-9, PHENOBARBITAL AND 5,6-BENZOFLAVONE, Method: SUSPENSION/PLATE).
Take `CCCCOc1cc(Br)ccc1C(=O)NOC(C)=O`: the mutagenic call (Test System: AMES SALMONELLA TYPHIMURIUM, Strain/Indicator: TA100, Metabolic Activation: NONE, Method: STANDARD PLATE) is “active; positive” and the mutagenic call (Test System: AMES SALMONELLA TYPHIMURIUM, Strain/Indicator: TA100, Metabolic Activation: RAT, S-9, AROCLOR, Method: STANDARD PLATE) is “active; positive”.
With `COC(=O)N[C@H]1[C@H](O[C@H]2[C@H](O)[C@@H](N)[C@H](O[C@H]3[C@H](O)[C@@H](N)[C@H](O)O[C@@H]3CO)O[C@@H]2CO)O[C@H](CO)[C@@H](O[C@@H]2O[C@H](CO)[C@@H](O[C@@H]3O[C@H](CO)[C@@H](O[C@@H]4O[C@H](CO)[C@@H](O[C@@H]5O[C@H](CO)[C@@H](O[C@@H]6O[C@H](CO)[C@@H](O[C@@H]7O[C@H](CO)[C@@H](O)[C@H](O)[C@H]7N)[C@H](O)[C@H]6N)[C@H](O)[C@H]5N)[C@H](O)[C@H]4N)[C@H](O)[C@H]3N)[C@H](O)[C@H]2N)[C@@H]1O`, the mutagenic call (End Point: IN VIVO CHROMOSOMAL ABERRATIONS, Test System: BONE MARROW CELLS (LYMPHOCYTES), Species: MOUSE, Strain/Sex: ICR/MALE, Route: DRINKING WATER) is “inactive; negative”; the mutagenic call (End Point: IN VIVO CHROMOSOMAL ABERRATIONS, Test System: BONE MARROW, Species: MOUSE, Strain/Sex: ICR/MALE, Route: DRINKING WATER) was “inactive; negative”; the mutagenic call (End Point: IN VIVO CHROMOSOMAL ABERRATIONS, Test System: BONE MARROW, Species: MOUSE, Strain/Sex: ICR/PARENT, F1, F2, F3 GENERATIONS, Strain/Sex: ICR/PARENT, F1, F2, F3 GENERATIONS, Route: DRINKING WATER) was “inactive; negative in all generations”; the mutagenic call (End Point: IN VIVO MICRONUCLEUS, Test System: BONE MARROW POLYCHROMATIC ERYTHROCYTES, Species: MOUSE, Strain/Sex: ICR/MALE, Route: DRINKING WATER) is “inactive; negative”.
Turning to `Nc1cc(Cl)ccc1[N+](=O)[O-]`, the mutagenic call (End Point: IN VITRO CHROMOSOMAL ABERRATIONS, Test System: CHL CELLS, Metabolic Activation: RAT, LIVER, S-9, SODIUM PHENOBARBITAL AND 5,6-BENZOFLAVONE) is “active; positive (structural changes); authors report equivocal results for ploidy chang”; the mutagenic call under setting [1] is “active; positive”; the mutagenic call (Test System: AMES SALMONELLA TYPHIMURIUM, Strain/Indicator: TA98, Metabolic Activation: RAT LIVER S-9, PHENOBARBITAL AND BETA-NAPHTHOFLAVONE, Method: PREINCUBATION) was “active; positive”; the mutagenic call under setting [2] is “inactive; negative”; the mutagenic call (Test System: AMES SALMONELLA TYPHIMURIUM, Strain/Indicator: TA100, Metabolic Activation: RAT LIVER S-9, PHENOBARBITAL AND BETA-NAPHTHOFLAVONE, Method: PREINCUBATION) is “inactive; negative”; the mutagenic call under setting [3] was “inactive; negative”. Moreover, the mutagenic call runs as follows: (Test System: AMES SALMONELLA TYPHIMURIUM, Strain/Indicator: TA1535, Metabolic Activation: RAT LIVER S-9, PHENOBARBITAL AND BETA-NAPHTHOFLAVONE, Method: PREINCUBATION) “inactive; negative”; under setting [4], “inactive; negative”; (Test System: AMES SALMONELLA TYPHIMURIUM, Strain/Indicator: TA1537, Metabolic Activation: RAT LIVER S-9, PHENOBARBITAL AND BETA-NAPHTHOFLAVONE, Method: PREINCUBATION) “inactive; negative”; (Test System: E.COLI, Strain/Indicator: WP2UVRA, Metabolic Activation: NONE, Method: PREINCUBATION) “inactive; negative”; (Test System: E.COLI, Strain/Indicator: WP2UVRA, Metabolic Activation: RAT LIVER S-9, PHENOBARBITAL AND BETA-NAPHTHOFLAVONE, Method: PREINCUBATION) “inactive; negative”.
